Reference: patent US11548899B2, “Fused 1,4-oxazepines and related analogs as BET bromodomain inhibitors” (THE REGENTS OF THE UNIVERSITY OF MICHIGAN, priority 2016, dated 2023)
Values joined by “and” are separate entries in the source; they are usually repeats but may differ in a detail not shown here. Equal entries are not always repeated. Where two headings read alike, the source gives them in different places.

What was measured:
recombinant BRD4 BD1 = target: T1, recombinant BRD4 BD1 (Homo sapiens, UniProt O60885); experiment: Competitive fluorescence-polarization (FP) binding assay, BRD4 BD1; settings: protein 10 nM, probe 1.5 nM
T1 construct: recombinant BRD4 BD1 and BRD4 BD2 proteins

recombinant BRD4 BD2 = target: T2, recombinant BRD4 BD2 (Homo sapiens, UniProt O60885); experiment: Competitive fluorescence-polarization (FP) binding assay, BRD4 BD2; settings: protein 6 nM, probe 1.5 nM
T2 construct: recombinant BRD4 BD1 and BRD4 BD2 proteins

[1] = FP competitive binding, read-out: IC50 (nM) BRD4 BD1

| SMILES | IC50 (recombinant BRD4 BD1; [1]) | IC50 (recombinant BRD4 BD2) | IC50 (recombinant BRD4 BD1; IC50 (nM) BRD4 BD1, FP competitive binding) |
| --- | --- | --- | --- |
| CCNC(=O)N1Cc2c(sc(C)c2Cc2ccccc2)-n2c(C)nnc2[C@@H]1C [Cpd. No. 22, (S)-3-benzyl-N-ethyl-2,6,9-trimethyl-4H-thieno[3,2-f][1,2,4]triazolo[4,3-a][1,4]diazepine-5(6H)-carboxamide] | 6060 nM | 5920 nM |  |
| Cc1sc2c(c1COC(C)(C)C)COCc1nnc(C)n1-2 [Cpd. No. 108, 3-(tert-butoxymethyl)-2,9-dimethyl-4H,6H-thieno[2,3-e][1,2,4]triazolo[3,4-c][1,4]oxazepine] | 5000 nM |  |  |
| Cc1nnc2n1-c1ccc(C3=COCC3)c(Cc3ccccc3)c1COC2 [Cpd. No. 78, 7-benzyl-8-(4,5-dihydrofuran-3-yl)-1-methyl-4,6-dihydrobenzo[e][1,2,4]triazolo[3,4-c][1,4]oxazepine] | 1320 nM |  |  |
| Cc1sc2c(c1Cn1cccn1)COCc1nnc(C)n1-2 [Cpd. No. 112, 3-((1H-pyrazol-1-yl)methyl)-2,9-dimethyl-4H,6H-thieno[2,3-e][1,2,4]triazolo[3,4-c][1,4]oxazepine] | 1370 nM and 2610 nM and 1760 nM | 3230 nM and 3850 nM and 3950 nM |  |
| Cc1nnc2n1-c1ccc(Cl)c(C3=CCCc4ccccc43)c1COC2 [Cpd. No. 74, 8-chloro-7-(3,4-dihydronaphthalen-1-yl)-1-methyl-4,6-dihydrobenzo[e][1,2,4]triazolo[3,4-c][1,4]oxazepine] |  |  | 1780 nM |
| Cc1nnc2n1-c1cccc(Br)c1COC2 [Cpd. No. 36, 7-bromo-1-methyl-4,6-dihydrobenzo[e][1,2,4]triazolo[3,4-c][1,4]oxazepine] | > 10000 nM | > 10000 nM |  |
| Cc1sc2c(c1Cc1ccccc1)CN(C1CCC1)[C@@H](C)c1nnc(C)n1-2 [Cpd. No. 29, (S)-3-benzyl-5-cyclobutyl-2,6,9-trimethyl-5,6-dihydro-4H-thieno[3,2-f][1,2,4]triazolo[4,3-a][1,4]diazepine] | 1470 nM | 5860 nM |  |
| Cc1sc2c(c1Br)COCc1nnc(C)n1-2 [Cpd. No. 2, 3-bromo-2,9-dimethyl-4H,6H-thieno[2,3-e][1,2,4]triazolo[3,4-c][1,4]oxazepine] | 23200 nM |  |  |
| Cc1nnc2n1-c1ccc(C#C[Si](C)(C)C)c(Cc3ccccc3)c1COC2 [Cpd. No. 82, 7-benzyl-1-methyl-8-((trimethylsilyl)ethynyl)-4,6-dihydrobenzo[e][1,2,4]triazolo[3,4-c][1,4]oxazepine] | 500 nM |  |  |
| Cc1nnc2n1-c1ccc(C3CCOC3)c(Cc3ccccc3)c1COC2 (centres unmarked) [Cpd. No. 81, 7-benzyl-1-methyl-8-(tetrahydrofuran-3-yl)-4,6-dihydrobenzo[e][1,2,4]triazolo[3,4-c][1,4]oxazepine] | 5420 nM |  |  |
| Cc1cc2c(s1)-n1c(C)nnc1COC2 [Cpd. No. 1, 2,9-dimethyl-4H,6H-thieno[2,3-e][1,2,4]triazolo[3,4-c][1,4]oxazepine] | 66900 nM |  |  |
| Cc1nnc2n1-c1cccc(C3CCCCc4ccccc43)c1COC2 (centres unmarked) [Cpd. No. 60, 1-methyl-7-(6,7,8,9-tetrahydro-5H-benzo[7]annulen-5-yl)-4,6-dihydrobenzo[e][1,2,4]triazolo[3,4-c][1,4]oxazepine] | 1150 nM |  |  |
| Cc1nnc2n1-c1sc(C3CCOCC3)c(Cc3ccccc3)c1COC2 [Cpd. No. 97, 3-benzyl-9-methyl-2-(tetrahydro-2H-pyran-4-yl)-4H,6H-thieno[2,3-e][1,2,4]triazolo[3,4-c][1,4]oxazepine] | 6710 nM |  |  |
| Cc1nnc2n1-c1ccc(-c3ccc(N)nc3)c(Cc3ccccc3)c1COC2 [Cpd. No. 72, 5-(7-benzyl-1-methyl-4,6-dihydrobenzo[e][1,2,4]triazolo[3,4-c][1,4]oxazepin-8-yl)pyridin-2-amine] | 2070 nM and 1980 nM |  |  |
| Cc1nnc2n1-c1ccc(C3CCOCC3)c(Cc3ccccc3)c1COC2 [Cpd. No. 79, 7-benzyl-1-methyl-8-(tetrahydro-2H-pyran-4-yl)-4,6-dihydrobenzo[e][1,2,4]triazolo[3,4-c][1,4]oxazepine] | 18100 nM |  |  |
| Cc1nnc2n1-c1ccc(C3=CCOCC3)c(Cc3ccccc3)c1COC2 [Cpd. No. 77, 7-benzyl-8-(3,6-dihydro-2H-pyran-4-yl)-1-methyl-4,6-dihydrobenzo[e][1,2,4]triazolo[3,4-c][1,4]oxazepine] | 13200 nM |  |  |
| C=C(C)c1sc2c(c1Cc1ccccc1)COCc1nnc(C)n1-2 [Cpd. No. 94, 3-benzyl-9-methyl-2-(prop-1-en-2-yl)-4H,6H-thieno[2,3-e][1,2,4]triazolo[3,4-c][1,4]oxazepine] | 1050 nM |  |  |
| Cc1nnc2n1-c1scc(Cc3ccccc3)c1COC2 [Cpd. No. 30, 3-benzyl-9-methyl-4H,6H-thieno[2,3-e][1,2,4]triazolo[3,4-c][1,4]oxazepine] | 1390 nM |  |  |
| Cc1sc2c(c1-c1ccccc1)COCc1nnc(C)n1-2 [Cpd. No. 3, 2,9-dimethyl-3-phenyl-4H,6H-thieno[2,3-e][1,2,4]triazolo[3,4-c][1,4]oxazepine] | 13300 nM |  |  |
| Cc1nnc2n1-c1sc(CN3CCOCC3)c(Cc3ccccc3)c1COC2 [Cpd. No. 90, 3-benzyl-9-methyl-2-(morpholinomethyl)-4H,6H-thieno[2,3-][1,2,4]triazolo[3,4-c][1,4]oxazepine] | 6510 nM |  |  |
| Cc1nnc2n1-c1cccc(C3=CCCCc4ccccc43)c1COC2 [Cpd. No. 59, 7-(6,7-dihydro-5H-benzo[7]annulen-9-yl)-1-methyl-4,6-dihydrobenzo[e][1,2,4]triazolo[3,4-c][1,4]oxazepine] | 966 nM |  |  |
| Cc1nnc2n1-c1sc(C3=CCOCC3)c(Cc3ccccc3)c1COC2 [Cpd. No. 95, 3-benzyl-2-(3,6-dihydro-2H-pyran-4-yl)-9-methyl-4H,6H-thieno[2,3-e][1,2,4]triazolo[3,4-c][1,4]oxazepine] | 1820 nM |  |  |
| Cc1nnc2n1-c1ccc(Cl)c(Br)c1COC2 [Cpd. No. 70, 7-bromo-8-chloro-1-methyl-4,6-dihydrobenzo[e][1,2,4]triazolo[3,4-c][1,4]oxazepine] | > 10000 nM |  |  |

The next lines start with results.

| IC50 (recombinant BRD4 BD1; [1]) | IC50 (recombinant BRD4 BD2) | SMILES | IC50 (recombinant BRD4 BD1; IC50 (nM) BRD4 BD1, FP competitive binding) |
| --- | --- | --- | --- |
| 942 nM | 1100 nM | CCOC(=O)CN1Cc2c(sc(C)c2Cc2ccccc2)-n2c(C)nnc2[C@@H]1C [Cpd. No. 25, ethyl (S)-2-(3-benzyl-2,6,9-trimethyl-4H-thieno[3,2-f][1,2,4]triazolo[4,3-a][1,4]diazepin-5(6H)-yl)acetate] |  |
| 210 nM | 127 nM | Cc1sc2c(c1C1CCCc3ccccc31)COCc1nnc(C)n1-2 (centres unmarked) [Cpd. No. 54, 2,9-dimethyl-3-(1,2,3,4-tetrahydronaphthalen-1-yl)-4,6-dihydrothieno[2,3-e][1,2,4]triazolo[3,4-c][1,4]oxazepine] |  |
| 118 nM |  | Cc1nnc2n1-c1scc(Br)c1CO[C@H]2C [Cpd. No. 117, (S)-3-bromo-6,9-dimethyl-4,6-dihydrothieno[2,3-e][1,2,4]triazolo[3,4-c][1,4]oxazepine] |  |
| 198 nM |  | Cc1sc2c(c1C1=CCCc3cc(F)ccc31)COCc1nnc(C)n1-2 [Cpd. No. 57, 3-(6-fluoro-3,4-dihydronaphthalen-1-yl)-2,9-dimethyl-4,6-dihydrothieno[2,3-e][1,2,4]triazolo[3,4-c][1,4]oxazepine] |  |
| 923 nM |  | Cc1nnc2n1-c1ccc(-c3cn[nH]c3)c(Cc3ccccc3)c1COC2 [Cpd. No. 75, 7-benzyl-1-methyl-8-(1H-pyrazol-4-yl)-4,6-dihydrobenzo[e][1,2,4]triazolo[3,4-c][1,4]oxazepine] |  |
| 244 nM |  | Cc1sc2c(c1C1=CCc3ccccc31)COCc1nnc(C)n1-2 [Cpd. No. 53, 3-(1H-inden-3-yl)-2,9-dimethyl-4,6-dihydrothieno[2,3-e][1,2,4]triazolo[3,4-c][1,4]oxazepine] |  |
| 532 nM |  | Cc1nnc2n1-c1ccc(-c3ccoc3)c(Cc3ccccc3)c1COC2 [Cpd. No. 80, 7-benzyl-8-(furan-3-yl)-1-methyl-4,6-dihydrobenzo[e][1,2,4]triazolo[3,4-c][1,4]oxazepine] |  |
| 288 nM |  | Cc1sc2c(c1C1CCc3ccccc31)COCc1nnc(C)n1-2 (centres unmarked) [Cpd. No. 55, 3-(2,3-dihydro-1H-inden-1-yl)-2,9-dimethyl-4,6-dihydrothieno[2,3-e][1,2,4]triazolo[3,4-c][1,4]oxazepine] |  |
| 494 nM |  | Cc1sc2c(c1Cn1cccc1)COCc1nnc(C)n1-2 [Cpd. No. 107, 3-((1H-pyrrol-1-yl)methyl)-2,9-dimethyl-4H,6H-thieno[2,3-e][1,2,4]triazolo[3,4-c][1,4]oxazepine] |  |
| 289 nM |  | Cc1sc2c(c1C1=CCCc3ccc(F)cc31)COCc1nnc(C)n1-2 [Cpd. No. 58, 3-(7-fluoro-3,4-dihydronaphthalen-1-yl)-2,9-dimethyl-4,6-dihydrothieno[2,3-e][1,2,4]triazolo[3,4-c][1,4]oxazepine] |  |
| 279 nM |  | Cc1sc2c(c1Cc1ccc(F)c(F)c1)COCc1nnc(C)n1-2 [Cpd. No. 105, 3-(3,4-difluorobenzyl)-2,9-dimethyl-4H,6H-thieno[2,3-e][1,2,4]triazolo[3,4-c][1,4]oxazepine] |  |
| 134 nM |  | Cc1sc2c(c1C1=CCCCc3ccccc31)COCc1nnc(C)n1-2 [Cpd. No. 56, 3-(6,7-dihydro-5H-benzo[7]annulen-9-yl)-2,9-dimethyl-4,6-dihydrothieno[2,3-e][1,2,4]triazolo[3,4-c][1,4]oxazepine] |  |
| 150 nM |  | C#Cc1ccc2c(c1Cc1ccccc1)COCc1nnc(C)n1-2 [Cpd. No. 83, 7-benzyl-8-ethynyl-1-methyl-4,6-dihydrobenzo[e][1,2,4]triazolo[3,4-c][1,4]oxazepine] |  |
| 937 nM |  | Cc1nnc2n1-c1ccc(-c3cnn(CC(N)=O)c3)c(Cc3ccccc3)c1COC2 [Cpd. No. 76, 2-(4-(7-benzyl-1-methyl-4,6-dihydrobenzo[e][1,2,4]triazolo[3,4-c][1,4]oxazepin-8-yl)-1H-pyrazol-1-yl)acetamide] |  |
| 313 nM |  | Cc1sc2c(c1Cc1cc(F)cc(F)c1)COCc1nnc(C)n1-2 [Cpd. No. 104, 3-(3,5-difluorobenzyl)-2,9-dimethyl-4H,6H-thieno[2,3-e][1,2,4]triazolo[3,4-c][1,4]oxazepine] |  |
